A short description of experiment [1]: Inhibition of NS5A in Hepatitis C virus subtype 1a replicon infected in human HuH7 cells assessed as reduction in viral replication.
A short description of experiment [2]: Inhibition of NS5A in Hepatitis C virus subtype 1b replicon infected in human HuH7 cells assessed as reduction in viral replication.
Experiment [3] in a line: Inhibition of NS5A in Hepatitis C virus subtype 2a replicon infected in human HuH7 cells assessed as reduction in viral replication.

Bounds are passed on as bounds.

For the compound `COC(=O)N[C@@H](C(=O)N1CCC[C@H]1c1ncc(-c2ccc(-c3ccc(-c4cnc([C@@H]5CCCN5C(=O)[C@H](NC(=O)OC)c5ccccc5)[nH]4)cc3)cc2)[nH]1)c1ccccc1`, the EC50 in experiment [1] was determined as 0.098 nM; in experiment [2], 0.014 nM.
On to `COC(=O)N[C@@H](C(=O)N1CCC[C@H]1c1ncc[nH]1)c1ccccc1`, for which the half-maximal effective concentration (EC50) in experiment [1] and in experiment [2] was more than 10000 nM each time.
Consider `COC(=O)N[C@@H](C(=O)N1CCC[C@H]1c1nc(-c2ccc(-c3ccccc3)cc2)c[nH]1)c1ccccc1`, for which the values for the concentration for a half-maximal effect (EC50) in experiment [1] and in experiment [2] were 2800 nM and 57 nM, respectively.
As for `CCCC(=O)Nc1ccc(-c2ccc(-c3c[nH]c([C@@H]4CCCN4C(=O)[C@H](NC(=O)OC)c4ccccc4)n3)cc2)cc1`, the half-maximal effective concentration (EC50) stood at 2800 nM in experiment [1] and 0.34 nM in experiment [2].
As for `CCCC(=O)Nc1ccc(-c2ccc(-c3c[nH]c([C@@H]4CCCN4C(=O)[C@H](NC(=O)c4ccccc4)c4ccccc4)n3)cc2)cc1`, the 50% effective concentration (EC50) in experiment [1] amounted to 2400 nM.
Same read-out and setting: with `CCCC(=O)Nc1ccc(-c2ccc(-c3c[nH]c([C@@H]4CCCN4C(=O)[C@H](NC(=O)CCCc4ccccc4)c4ccccc4)n3)cc2)cc1` the figure was 1300 nM; with `CCCC(=O)Nc1ccc(-c2ccc(-c3c[nH]c([C@@H]4CCCN4C(=O)[C@H](NC(=O)CCCCCCc4ccccc4)c4ccccc4)n3)cc2)cc1`, 642 nM.
For the compound `CCCC(=O)Nc1ccc(-c2ccc(-c3c[nH]c([C@@H]4CCCN4C(=O)[C@H](NC(=O)CCCNC(=O)OCc4ccccc4)c4ccccc4)n3)cc2)cc1`, the values for the EC50 in experiment [1] and in experiment [2] were 56 nM and 0.15 nM, respectively.
With `CCCC(=O)Nc1ccc(-c2ccc(-c3c[nH]c([C@@H]4CCCN4C(=O)[C@H](NC(=O)c4ccccc4NC(=O)OCc4ccccc4)c4ccccc4)n3)cc2)cc1`, the 50% effective concentration (EC50) in experiment [1] amounted to 614 nM.
Turning to `CCCC(=O)Nc1ccc(-c2ccc(-c3c[nH]c([C@@H]4CCCN4C(=O)[C@H](NC(=O)c4cccc(NC(=O)OCc5ccccc5)c4)c4ccccc4)n3)cc2)cc1`, the values for the concentration for a half-maximal effect (EC50) in experiment [1] and in experiment [2] were 44 nM and 0.076 nM, respectively.
As to `CCCC(=O)Nc1ccc(-c2ccc(-c3c[nH]c([C@@H]4CCCN4C(=O)[C@H](NC(=O)c4ccc(NC(=O)OCc5ccccc5)cc4)c4ccccc4)n3)cc2)cc1`, the 50% effective concentration (EC50) in experiment [1] amounted to 131 nM.
`CCCC(=O)Nc1ccc(-c2ccc(-c3c[nH]c([C@@H]4CCCN4C(=O)[C@H](NC(=O)N4CCC[C@H](NC(=O)OCc5ccccc5)C4)c4ccccc4)n3)cc2)cc1`: in experiment [1], the EC50 was 247 nM.
Take `CCCC(=O)Nc1ccc(-c2ccc(-c3c[nH]c([C@@H]4CCCN4C(=O)[C@H](NC(=O)N4CCC[C@@H](NC(=O)OCc5ccccc5)C4)c4ccccc4)n3)cc2)cc1`: the EC50 was determined as 100 nM in experiment [1] and 0.023 nM in experiment [2].
As to `CCCC(=O)Nc1ccc(-c2ccc(-c3c[nH]c([C@@H]4CCCN4C(=O)[C@H](NC(=O)N4CC[C@H](NC(=O)OCc5ccccc5)C4)c4ccccc4)n3)cc2)cc1`, the EC50 in experiment [1] was 82 nM; in experiment [2], 0.037 nM.
Consider `CCCC(=O)Nc1ccc(-c2ccc(-c3c[nH]c([C@@H]4CCCN4C(=O)[C@H](NC(=O)N4CC[C@@H](NC(=O)OCc5ccccc5)C4)c4ccccc4)n3)cc2)cc1`, for which the EC50 in experiment [1] came to 1.1 nM; in experiment [2], 0.0048 nM.
As for `CCCC(=O)Nc1ccc(-c2ccc(-c3c[nH]c([C@@H]4CCCN4C(=O)[C@H](NC(=O)N4CCCC4)c4ccccc4)n3)cc2)cc1`, the concentration for a half-maximal effect (EC50) in experiment [1] came to 353 nM.
`CCCC(=O)Nc1ccc(-c2ccc(-c3c[nH]c([C@@H]4CCCN4C(=O)[C@H](NC(=O)N4CC[C@@H](NC(=O)OC)C4)c4ccccc4)n3)cc2)cc1`: the values for the EC50 in experiment [1] and in experiment [2] were 353 nM and 0.043 nM, respectively.
For `O=C(CCCNC(=O)OCc1ccccc1)N[C@@H](C(=O)N1CCC[C@H]1c1nc(-c2ccc(-c3ccc(NC(=O)c4ccccc4)cc3)cc2)c[nH]1)c1ccccc1` the same measures were 34 nM and 0.025 nM.
Regarding `COCc1ccc(C(=O)Nc2ccc(-c3ccc(-c4c[nH]c([C@@H]5CCCN5C(=O)[C@H](NC(=O)CCCNC(=O)OCc5ccccc5)c5ccccc5)n4)cc3)cc2)cc1`, the 50% effective concentration (EC50) worked out at 3.5 nM in experiment [1] and 0.0042 nM in experiment [2].
On the same counts, the results for `COC1CCC(C(=O)Nc2ccc(-c3ccc(-c4c[nH]c([C@@H]5CCCN5C(=O)[C@H](NC(=O)CCCNC(=O)OCc5ccccc5)c5ccccc5)n4)cc3)cc2)CC1` (stereo partly drawn) are 8.1 nM and 0.0049 nM.
In the case of `COC1CCN(C(=O)Nc2ccc(-c3ccc(-c4c[nH]c([C@@H]5CCCN5C(=O)[C@H](NC(=O)CCCNC(=O)OCc5ccccc5)c5ccccc5)n4)cc3)cc2)CC1`, the EC50 in experiment [1] amounted to 2.3 nM; in experiment [2], 0.02 nM.
Take `COC1CCN(C(=O)Nc2ccc(-c3ccc(-c4c[nH]c([C@@H]5CCCN5C(=O)[C@H](NC(=O)N5CC[C@@H](NC(=O)OCc6ccccc6)C5)c5ccccc5)n4)cc3)cc2)CC1`: the figures for the EC50 in experiment [1], in experiment [2] and in experiment [3] were 0.039 nM, 0.028 nM and 0.018 nM, respectively.

The record behind these values is BindingDB's records for doi:10.1016/j.bmcl.2019.126932 (Japan Tobacco, 2020).
